Experiments:
HO-1 and NQO1 = HO-1 and NQO1 protein expression, H9c2; format: cell-based, rat; details: H9c2 cells, 24 h, dose-dependent
Description: Total protein was isolated from H9c2 cells, primary mouse cardiomyocytes, RAW264.7 cells and heart tissue using 1X RIPA buffer containing phosphatase and proteinase inhibitors at 4 °C. After measurement of the concentration, the cell lysates were separated by sodium dodecyl sulphate polyacrylamide gel electrophoresis (SDS-PAGE) and transferred to polyvinylidene fluoride (PVDF) membranes. The membranes were blocked in Tris-buffered saline-Tween 20 (TBST) buffer with 5% BSA for 1 h and incubated with primary antibodies (1:1000 dilution) overnight at 4 °C. After the membranes was washed by TBST buffer for three times, they were incubated with horseradish peroxidase (HRP)-conjugated secondary mouse or rabbit antibodies (1:3,000 dilution) at room temperature (RT) for 1.5 h and then detected by SuperEnhanced chemiluminescence (ECL) reaction reagents (GBCBIO Technologies Inc., Guangzhou, Guangdong, China). In brief, drop evenly the ECL working liquid onto the membrane at the ratio of 1 mL ECL working liquid and 10 cm^2 of membrane. After letting the membranes stand for 1-2 min, the bands of the respective proteins were detected with the exposure time of 10 ~60 s.

[1] = test system: LAD-induced myocardial ischemia-reperfusion model in mice; experiment: LAD-induced myocardial ischemia-reperfusion model; format: in vivo, mouse
Description: The experimental procedures and protocols were approved by the Committee on Ethical USE of Animals of International Institute for Translational Chinese Medicine, Guangzhou University of Chinese Medicine (No. IITCM-20180115). Adult male C57BL/6 mice were purchased from the Laboratory Animal Center, Sun Yat-Sen University (Guangzhou, Guangdong, China), and Nrf2 knockout mice were obtained from Riken. Adult male C57BL/6 or Nrf2 knockout mice were treated with 30 mg/kg PBA or an equal volume of vehicle 15 min prior to reperfusion. Mice were divided into 6 groups: (1) Wild-type sham (n = 10): C57BL/6 mice received vehicle, as the sham group; (2) Wild-type AMI/R group (n = 10): C57BL/6 mice received vehicle (i.p.) 15 min before reperfusion; (3) Wild-type AMI/R plus PBA group (n = 10): C57BL/6 mice received 30 mg/kg PBA (i.p.) 15 min before reperfusion; (4) Nrf2 knockout sham (n = 8) : Nrf2 knockout mice received vehicle (i.p.), as in the sham group; (5) Nrf2 knockout AMI/R group (n = 8): Nrf2 knockout mice received vehicle (i.p.) 15 min before reperfusion; (6) Nrf2 knockout AMI/R plus PBA group (n = 8): Nrf2 knockout mice received 30 mg/kg PBA (i.p.) 15 min before reperfusion. PBA was dissolved in 0.9% NaCl buffer containing 2% EtOH. The vehicle was 0.9% NaCl buffer containing 2% EtOH.
The C57BL/6 mice or Nrf2 knockout mice underwent myocardial ischemia-reperfusion injury as described previously. In brief, mice were anaesthetized by i.p. injection of sodium pentobarbital at a dose of 50 mg/kg and ventilated under a pressure-control VentStar R415 ventilator (RWD Life Science Inc., Shenzhen, China). Following thoracotomy between the 3rd and 4th intercostal spaces, the mouse heart was exposed. The LAD was ligated with an 8-0 silk suture and the PE10 tube for 30 min. PBA and vehicle were i.p. injected 15 min prior to reperfusion. After 30 min of ischemia, the suture with PE10 tube was removed. At the end of 24 h of reperfusion, the LAD was relegated, and 1% Evans blue dye was injected to measure the area at risk (AAR). The hearts of the mice were collected, and frozen at -80 °C for 10 min and cut into 5 slices. The slices were incubated with 1% 2,3,5-triphenyltetrazolium chloride (TTC, Santa Cruz, USA) at 37 °C for 15 min and fixed with 4% paraformaldehyde overnight. The slices were captured and the areas of AAR and IA were quantified by using ImageJ software.
Hemodynamic measurements were performed using a PV-loop catheter (Transonic Systems Inc., Ithaca, NY, USA). Hemodynamic measurements were analysed using Ponemah 7700 modules software according to a standardized protocol. The maximum rate of rise of left ventricular pressure increase (+dp/dtmax) and the maximum rate of rise of left ventricular pressure decrease (-dp/dtmax) were calculated for all mice.
Echocardiography was performed on mice at the end of reperfusion. In brief, mice were re-anesthetized with isoflurane and subjected to the Vevo 2100 System (VisualSonics Inc., Toronto, Canada). M-mode was used to obtain LV dimensions in diastole and systole according to the standard procedures and calculations. Left ventricular end systolic diameter (LVESD), left ventricular end diastolic diameter (LVEDD), left ventricular end systolic volume (LVSV) and left ventricular end diastolic volume (LVDV) were measured. And the left ventricular ejection fraction (LVEF) and left ventricular fractional shortening (LVFS) values were calculated using Vevostrain software as parameters indicating cardiac function.

[2] = test system: primary neonatal mouse cardiomyocytes; experiment: MTT cytotoxicity, primary cardiomyocytes; format: cell-based; details: under 240 μM, 48 h
Description: The heart was removed from the neonatal C57BL/6 mice and cut into 1 mm^3 pieces in ice […] buffer. The tissues were digested with the mixture of 0.125% trypsin (Gibco, 15090-046) and 0.1% type II collagenase (Gibco, 17101-015) 6 min at 37 °C for three times until the tissues were completely digested. The cells were harvested and seeded in a dish. After 90 min of incubation, the cell culture medium was collected and centrifuged. The centrifuged cardiomyocytes were harvested, seeded on 0.1 % gelatin-coated culture plates with DMEM containing 10% FBS and […] Brdu, and incubated in a 37°C incubator.
Cell viability was determined by MTT assays. PBA was prepared to a stock solution dissolved in dimethyl sulfoxide (DMSO). RAW264.7, H9c2 cells, primary mouse cardiomyocytes were treated with different doses of PBA, and DMSO only as control for 48 h for the toxicity. In addition, H9c2 cells or primary mouse cardiomyocytes were treated with the indicated doses of PBA, diazoxide as positive control, DMSO only as control, then cultured with or without OGD/R treatment. At the end of the experiments, MTT was added into each well at the concentration of 0.5 mg/ml, and incubated at 37 °C for 4 h. […] And the solution was measured at the absorbance of 490 nm by a spectrophotometer (Thermo Fisher Scientific, MA, USA). […]

[3] = 30 mg/kg i.p., 24 hours after AMI/R

## C=C(COC(=O)C=Cc1ccc(O)c(O)c1)C(O)COC1OC(CO)C(O)C(O)C1O (stereo not shown) [PBA, pubescenoside A]
HO-1 and NQO1
  HO-1 and NQO1 expression at the protein level: increased
[1]; 30 mg/kg
  myofibrillar structure (H&E staining): preserved myofibrillar structure
  recruitment of inflammatory cells (H&E staining): reduced the recruitment of inflammatory cells
[1]; 30 mg/kg i.p. 15 min before reperfusion, 30 min ischemia, 24 h reperfusion
  cardiac infarct size: significantly reduce
[1]; 30 mg/kg i.p., 30 min ischemia, 24 h reperfusion, blood, ELISA
  level of CK-MB: significantly reduce
[1]; [3]
  +dp/dtmax: increasing
  -dp/dtmax: increasing
  LVEF: increasing
  LVESD: decreasing
  LVFS: increasing
  LVSV: decreasing
[1]; AMI/R-injured mice, western blot
  NLRP3 inflammasome activation in heart tissue: attenuated
[2]
  cell toxicity (MTT): did not exhibit any cell toxicity
